Reference: paper PMC7284125, “Identification of annotated bioactive molecules that impair motility of the blood fluke Schistosoma mansoni” (International Journal for Parasitology: Drugs and Drug …, 2020)

test system: S. mansoni schistosomulae; test: Phenotypic primary screen assay on schistosomulae (phenotype; viability by methylene blue dye exclusion); type: cell-based, Schistosoma mansoni; settings: three-day-old schistosomulae, 10 μM, 24 h; estimated 5 days post compound exposure
Procedure, shortened: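 Parasites lacking contraction/relaxation cycles and showing dark internal granulations counted as dead. Movement and body shape were compared with DMSO-treated controls under a stereo microscope at 24 h and at five days of exposure. Larvae came from infected snails shed under light for 2 h at 32 °C.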

Which Phenotype does the source give for `C[C@]12CC[C@@H]3c4ccc(O)cc4CC[C@H]3[C@@H]1CC[C@@H]2O` [Estradiol] here?
The Phenotype was “blebbing”.

Which Phenotype does the source give for `Cc1ccc(C(=O)N(CCCN)[C@@H](c2oc3cc(Cl)ccc3c(=O)c2Cc2ccccc2)C(C)C)cc1` [SB743921] here?
The Phenotype was “big, dark”.

How did the Phenotype turn out when `COC(=O)C1=CCCN(C)C1` [Arecoline] was run?
The Phenotype was “round body, blebbing”.

`Cc1cccc(C(C)c2cnc[nH]2)c1C` (centres unmarked) [Medetomidine] was tested. Which Phenotype did it give?
The Phenotype was “elongated”.

test system: S. mansoni adult worms; test: Motility assay on adult parasites (pixel displacement, relative to DMSO control); type: cell-based, Schistosoma mansoni; settings: Arecoline and analogs, 10 μM, D1, Female adult worms
Procedure, shortened: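 Unpaired adult worms from mice 6 weeks post-infection kept in OPTI-MEM with 5% dialyzed FBS and exposed to compounds at 1 and 10 μM for 24 h. Motility filmed 1 min at 10 frames/s, quantified by pixel displacement versus DMSO-treated worms; recovery followed up to five days after washout.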

`COC(=O)C1=CCCN(C)C1` [Arecoline] was tested. Which Fractional motility did it give?
The Fractional motility was -0.92.

same assay, conditions: Arecoline and analogs, 10 μM, D1, Male adult worms

With `COC(=O)C1=CCCN(C)C1` [Arecoline] as the molecule, how does the Fractional motility read?
Its Fractional motility is -0.79.

same assay, conditions: Arecoline and analogs, 10 μM, D5, Female adult worms

Which Fractional motility does the source give for `COC(=O)C1=CCCN(C)C1` [Arecoline] here?
The Fractional motility was -0.72.

same assay, conditions: Arecoline and analogs, 10 μM, D5, Male adult worms

For `COC(=O)C1=CCCN(C)C1` [Arecoline], which Fractional motility is on record?
The Fractional motility was -0.0374.

same assay, conditions: adults, after 24 h exposure

With `COC(=O)C1=CCCN(C)C1` [Arecoline] as the molecule, how does the “motility phenotype in words” value read?
The value was “nearly complete paralysis”.

same assay, conditions: secondary screen, 10 μM, D1, Female adult worms

For `C[C@]12CC[C@@H]3c4ccc(O)cc4CC[C@H]3[C@@H]1CC[C@@H]2O` [Estradiol], which Fractional motility is on record?
Its Fractional motility is -0.35.

Which Fractional motility does the source give for `Cc1ccc(C(=O)N(CCCN)[C@@H](c2oc3cc(Cl)ccc3c(=O)c2Cc2ccccc2)C(C)C)cc1` [SB743921] here?
The Fractional motility was 1.14.

For `COC(=O)C1=CCCN(C)C1` [Arecoline], which Fractional motility is on record?
Its Fractional motility is -0.92.

For `Cc1cccc(C(C)c2cnc[nH]2)c1C` (centres unmarked) [Medetomidine], which Fractional motility is on record?
The Fractional motility was 1.05.

same assay, conditions: secondary screen, 10 μM, D1, Male adult worms

For `C[C@]12CC[C@@H]3c4ccc(O)cc4CC[C@H]3[C@@H]1CC[C@@H]2O` [Estradiol], which Fractional motility is on record?
Its Fractional motility is 0.83.

With `Cc1ccc(C(=O)N(CCCN)[C@@H](c2oc3cc(Cl)ccc3c(=O)c2Cc2ccccc2)C(C)C)cc1` [SB743921] as the molecule, how does the Fractional motility read?
Its Fractional motility is 1.48.

For `COC(=O)C1=CCCN(C)C1` [Arecoline], which Fractional motility is on record?
Its Fractional motility is -0.79.

`Cc1cccc(C(C)c2cnc[nH]2)c1C` (centres unmarked) [Medetomidine] was tested. Which Fractional motility did it give?
The Fractional motility was 2.75.

same assay, conditions: secondary screen, 10 μM, D5, Female adult worms

How did the Fractional motility turn out when `C[C@]12CC[C@@H]3c4ccc(O)cc4CC[C@H]3[C@@H]1CC[C@@H]2O` [Estradiol] was run?
Its Fractional motility is 0.13.

`Cc1ccc(C(=O)N(CCCN)[C@@H](c2oc3cc(Cl)ccc3c(=O)c2Cc2ccccc2)C(C)C)cc1` [SB743921] was tested. Which Fractional motility did it give?
The Fractional motility was -0.87.

`COC(=O)C1=CCCN(C)C1` [Arecoline] was tested. Which Fractional motility did it give?
Its Fractional motility is -0.72.

How did the Fractional motility turn out when `Cc1cccc(C(C)c2cnc[nH]2)c1C` (centres unmarked) [Medetomidine] was run?
The Fractional motility was -0.85.

same assay, conditions: secondary screen, 10 μM, D5, Male adult worms

`C[C@]12CC[C@@H]3c4ccc(O)cc4CC[C@H]3[C@@H]1CC[C@@H]2O` [Estradiol] was tested. Which Fractional motility did it give?
Its Fractional motility is 0.26.

For `Cc1ccc(C(=O)N(CCCN)[C@@H](c2oc3cc(Cl)ccc3c(=O)c2Cc2ccccc2)C(C)C)cc1` [SB743921], which Fractional motility is on record?
The Fractional motility was 0.0641.

For `COC(=O)C1=CCCN(C)C1` [Arecoline], which Fractional motility is on record?
The Fractional motility was -0.0374.

With `Cc1cccc(C(C)c2cnc[nH]2)c1C` (centres unmarked) [Medetomidine] as the molecule, how does the Fractional motility read?
The Fractional motility was 0.31.

test system: S. mansoni schistosomulae; test: Phenotypic primary screen assay on schistosomulae (phenotype; viability by methylene blue dye exclusion); type: cell-based; settings: Schistosoma mansoni; three-day-old schistosomulae, 10 μM, 24 h; calculated 5 days post compound exposure; read-out: Viability (%)

With `C[C@]12CC[C@@H]3c4ccc(O)cc4CC[C@H]3[C@@H]1CC[C@@H]2O` [Estradiol] as the molecule, how does the viability at 10 µM read?
The viability at 10 µM was 98%.

`Cc1ccc(C(=O)N(CCCN)[C@@H](c2oc3cc(Cl)ccc3c(=O)c2Cc2ccccc2)C(C)C)cc1` [SB743921] was tested. Which viability at 10 µM did it give?
Its viability at 10 µM is 70%.

Which viability at 10 µM does the source give for `COC(=O)C1=CCCN(C)C1` [Arecoline] here?
Its viability at 10 µM is 96.5%.

Which viability at 10 µM does the source give for `Cc1cccc(C(C)c2cnc[nH]2)c1C` (centres unmarked) [Medetomidine] here?
Its viability at 10 µM is 100%.

test system: S. mansoni schistosomulae; test: Motility assay on schistosomulae (pixel displacement, relative to DMSO control); type: cell-based, Schistosoma mansoni; settings: Arecoline and analogs, 24h, D1, 10 µM
Procedure, shortened: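 Mechanically transformed S. mansoni schistosomulae (200/well) in Opti-MEM with 5% dialyzed FBS were exposed to compounds at 1 and 10 μM for 24 h at 37 °C, 5% CO2. Motility filmed at 10 frames/s for 1 min and quantified by pixel displacement relative to DMSO-treated controls.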

`COC(=O)C1=CCCN(C)C1` [Arecoline] was tested. Which Fractional motility did it give?
The Fractional motility was -0.93.

same assay, conditions: Arecoline and analogs, 24h, D5, 10 µM

`COC(=O)C1=CCCN(C)C1` [Arecoline] was tested. Which Fractional motility did it give?
Its Fractional motility is 1.49.

same assay, conditions: Schistosoma mansoni, 120 h; Arecoline and analogs, 24h, D5, 1 µM; read-out: Fractional motility

For `COC(=O)C1=CCCN(C)C1` [Arecoline], which activity at 1 µM is on record?
Its activity at 1 µM is 122%.

same assay, conditions: Schistosoma mansoni, 120 h; schistosomulae, secondary screen, 24h exposure, read at D5, 1 µM; read-out: Fractional motility

`C[C@]12CC[C@@H]3c4ccc(O)cc4CC[C@H]3[C@@H]1CC[C@@H]2O` [Estradiol] was tested. Which activity at 1 µM did it give?
Its activity at 1 µM is 23%.

`Cc1ccc(C(=O)N(CCCN)[C@@H](c2oc3cc(Cl)ccc3c(=O)c2Cc2ccccc2)C(C)C)cc1` [SB743921] was tested. Which activity at 1 µM did it give?
The activity at 1 µM was 17%.

`Cc1cccc(C(C)c2cnc[nH]2)c1C` (centres unmarked) [Medetomidine] was tested. Which activity at 1 µM did it give?
The activity at 1 µM was 10%.

same assay, conditions: Schistosoma mansoni; Arecoline and analogs, 24h, D1, 1 µM; read-out: Fractional motility

Which activity at 1 µM does the source give for `COC(=O)C1=CCCN(C)C1` [Arecoline] here?
The activity at 1 µM was -93%.

same assay, conditions: Schistosoma mansoni; schistosomulae, secondary screen, 24h exposure, read at D1, 1 µM; read-out: Fractional motility

Which activity at 1 µM does the source give for `C[C@]12CC[C@@H]3c4ccc(O)cc4CC[C@H]3[C@@H]1CC[C@@H]2O` [Estradiol] here?
The activity at 1 µM was 87%.

For `Cc1ccc(C(=O)N(CCCN)[C@@H](c2oc3cc(Cl)ccc3c(=O)c2Cc2ccccc2)C(C)C)cc1` [SB743921], which activity at 1 µM is on record?
Its activity at 1 µM is 74%.

How did the activity at 1 µM turn out when `Cc1cccc(C(C)c2cnc[nH]2)c1C` (centres unmarked) [Medetomidine] was run?
The activity at 1 µM was -39%.

same assay, conditions: schistosomulae, 1h exposure, read at D1, 10 µM

How did the Fractional motility turn out when `COC(=O)C1=CCCN(C)C1` [Arecoline] was run?
The Fractional motility was -0.93.

same assay, conditions: schistosomulae, 1h exposure, read at D5, 10 µM

`COC(=O)C1=CCCN(C)C1` [Arecoline] was tested. Which Fractional motility did it give?
Its Fractional motility is -0.87.

same assay, conditions: schistosomulae, 3h exposure, read at D1, 10 µM

How did the Fractional motility turn out when `COC(=O)C1=CCCN(C)C1` [Arecoline] was run?
The Fractional motility was -0.70.

same assay, conditions: schistosomulae, 3h exposure, read at D5, 10 µM

For `COC(=O)C1=CCCN(C)C1` [Arecoline], which Fractional motility is on record?
Its Fractional motility is -0.72.

same assay, conditions: schistosomulae, 6h exposure, read at D1, 10 µM

With `COC(=O)C1=CCCN(C)C1` [Arecoline] as the molecule, how does the Fractional motility read?
Its Fractional motility is -0.86.

same assay, conditions: schistosomulae, 6h exposure, read at D5, 10 µM

For `COC(=O)C1=CCCN(C)C1` [Arecoline], which Fractional motility is on record?
The Fractional motility was -0.49.

same assay, conditions: schistosomulae, after 24 h exposure

`COC(=O)C1=CCCN(C)C1` [Arecoline] was tested. Which “motility phenotype in words” value did it give?
The value was “short term, pronounced paralysis”.

same assay, conditions: schistosomulae, secondary screen, 24h exposure, read at D1, 1 µM

Which Fractional motility does the source give for `COC(=O)C1=CCCN(C)C1` [Arecoline] here?
Its Fractional motility is -0.93.

same assay, conditions: schistosomulae, secondary screen, 24h exposure, read at D1, 10 µM

Which Fractional motility does the source give for `C[C@]12CC[C@@H]3c4ccc(O)cc4CC[C@H]3[C@@H]1CC[C@@H]2O` [Estradiol] here?
Its Fractional motility is 2.93.

Which Fractional motility does the source give for `Cc1ccc(C(=O)N(CCCN)[C@@H](c2oc3cc(Cl)ccc3c(=O)c2Cc2ccccc2)C(C)C)cc1` [SB743921] here?
Its Fractional motility is 1.32.

`COC(=O)C1=CCCN(C)C1` [Arecoline] was tested. Which Fractional motility did it give?
Its Fractional motility is -0.93.

`Cc1cccc(C(C)c2cnc[nH]2)c1C` (centres unmarked) [Medetomidine] was tested. Which Fractional motility did it give?
The Fractional motility was -0.24.

same assay, conditions: schistosomulae, secondary screen, 24h exposure, read at D5, 1 µM

With `COC(=O)C1=CCCN(C)C1` [Arecoline] as the molecule, how does the Fractional motility read?
The Fractional motility was 1.22.

same assay, conditions: schistosomulae, secondary screen, 24h exposure, read at D5, 10 µM

With `C[C@]12CC[C@@H]3c4ccc(O)cc4CC[C@H]3[C@@H]1CC[C@@H]2O` [Estradiol] as the molecule, how does the Fractional motility read?
The Fractional motility was 0.31.

`Cc1ccc(C(=O)N(CCCN)[C@@H](c2oc3cc(Cl)ccc3c(=O)c2Cc2ccccc2)C(C)C)cc1` [SB743921] was tested. Which Fractional motility did it give?
The Fractional motility was -0.89.

How did the Fractional motility turn out when `COC(=O)C1=CCCN(C)C1` [Arecoline] was run?
Its Fractional motility is 1.49.

With `Cc1cccc(C(C)c2cnc[nH]2)c1C` (centres unmarked) [Medetomidine] as the molecule, how does the Fractional motility read?
The Fractional motility was 0.20.
